# Assay results from US12043632B2, “6-heteroaryloxy benzimidazoles and azabenzimidazoles as JAK2 inhibitors” (Ajax Therapeutics, Inc., priority 2020, dated 2024).
# Molecular target: T1, JAK2 (JH1domain-catalytic, Y1007F,Y1008F) kinase (Homo sapiens, UniProt O60674, Y1007F/Y1008F)
# T1 construct: JAK2 (JH1domain-catalytic, Y1007F,Y1008F) kinase was expressed as N-terminal fusion; made in house; host or cells: transiently transfected HEK293 cells
# Experiment: JAK2 JH1 Domain Binding Assay
# Details: qPCR readout
# T1 sequence (O60674 849-1124 Y1007F/Y1008F limits assumed): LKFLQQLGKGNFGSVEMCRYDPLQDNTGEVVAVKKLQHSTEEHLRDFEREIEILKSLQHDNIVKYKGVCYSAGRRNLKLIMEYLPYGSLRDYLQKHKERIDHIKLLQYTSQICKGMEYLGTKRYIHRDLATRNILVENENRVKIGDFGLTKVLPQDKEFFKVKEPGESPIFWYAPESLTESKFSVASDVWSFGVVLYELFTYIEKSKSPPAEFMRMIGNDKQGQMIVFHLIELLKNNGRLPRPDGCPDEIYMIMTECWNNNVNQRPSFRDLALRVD
row,SMILES,Kd [nM]
1,"Cn1c(Nc2cc(C(F)(F)F)cn(CCO)c2=O)nc2ncc(Oc3cnn4ccc(N5CCOCC5)cc34)c(Cl)c21 [Example I-183, 3-((7-chloro-1-methyl-6-((5-morpholinopyrazolo[1,5-a]pyridin-3-yl)oxy)-1H-imidazo[4,5-b]pyridin-2-yl)amino)-1-(2-hydroxyethyl)-5-(trifluoromethyl)pyridin-2(1H)-one]",< 10
2,CNc1nccn2ncc(Oc3cnc4nc(Nc5ccc(CN6CCC(F)(F)C6)c(C(F)(F)F)c5)n(C)c4c3Cl)c12 [Example I-184],50 to 1000
3,"Cn1c(Nc2cc(C(C)(C)C)n(C3CC4(COC4)C3)n2)nc2ncc(Oc3cnn4ccncc34)c(C#N)c21 [Example I-187, 2-((5-(tert-butyl)-1-(2-oxaspiro[3.3]heptan-6-yl)-1H-pyrazol-3-yl)amino)-1-methyl-6-(pyrazolo[1,5-a]pyrazin-3-yloxy)-1H-imidazo[4,5-b]pyridine-7-carbonitrile]",10 to 50
4,"CCc1cc(Nc2nc3ncc(Oc4cnn5ccncc45)c(Cl)c3n2C)cc(C(=O)N2CCC2)n1 [Example I-188, Azetidin-1-yl(4-((7-chloro-1-methyl-6-(pyrazolo[1,5-a]pyrazin-3-yloxy)-1H-imidazo[4,5-b]pyridin-2-yl)amino)-6-ethylpyridin-2-yl)methanone]",< 10
5,"CNc1nccn2ncc(Oc3cnc4nc(Nc5ccc(CN6CC(F)C6)c(C(F)(F)F)c5)n(C)c4c3Cl)c12 [Example I-189, 7-chloro-N-(4-((3-fluoroazetidin-1-yl)methyl)-3-(trifluoromethyl)phenyl)-1-methyl-6-((4-(methylamino)pyrazolo[1,5-a]pyrazin-3-yl)oxy)-1H-imidazo[4,5-b]pyridin-2-amine]",10 to 50
6,"CNc1nccn2ncc(Oc3cnc4nc(Nc5ccc(CN6CC(OC)C6)c(C(F)(F)F)c5)n(C)c4c3Cl)c12 [Example I-190, 7-chloro-N-(4-((3-methoxyazetidin-1-yl)methyl)-3-(trifluoromethyl)phenyl)-1-methyl-6-((4-(methylamino)pyrazolo[1,5-a]pyrazin-3-yl)oxy)-1H-imidazo[4,5-b]pyridin-2-amine]",10 to 50
7,"CNc1nccn2ncc(Oc3cnc4nc(Nc5ccc(CN6CC[C@H](OC)C6)c(C(F)(F)F)c5)n(C)c4c3Cl)c12 [Example I-191, (S)-7-chloro-N-(4-((3-methoxypyrrolidin-1-yl)methyl)-3-(trifluoromethyl)phenyl)-1-methyl-6-((4-(methylamino)pyrazolo[1,5-a]pyrazin-3-yl)oxy)-1H-imidazo[4,5-b]pyridin-2-amine]",10 to 50
8,CNc1nccn2ncc(Oc3cnc4nc(Nc5ccc(CN6CC[C@@H](OC)C6)c(C(F)(F)F)c5)n(C)c4c3Cl)c12 [Example I-192],10 to 50
9,"CNc1nccn2ncc(Oc3cnc4nc(Nc5cc(C(F)(F)F)cn(C)c5=O)n(C)c4c3C#N)c12 [Example I-193, 1-methyl-2-((1-methyl-2-oxo-5-(trifluoromethyl)-1,2-dihydropyridin-3-yl)amino)-6-((4-(methylamino)pyrazolo[1,5-a]pyrazin-3-yl)oxy)-1H-imidazo[4,5-b]pyridine-7-carbonitrile]",< 10
10,"Cn1c(Nc2cc(CN3CCOCC3)cc(C(F)(F)F)c2)nc2ncc(Oc3cnn4ccncc34)c(Cl)c21 [Example I-194, 7-chloro-1-methyl-N-(3-(morpholinomethyl)-5-(trifluoromethyl)phenyl)-6-(pyrazolo[1,5-a]pyrazin-3-yloxy)-1H-imidazo[4,5-b]pyridin-2-amine]",< 10
11,"Cn1c(Nc2cc(CN3CC(F)C3)cc(C(F)(F)F)c2)nc2ncc(Oc3cnn4ccncc34)c(Cl)c21 [Example I-195, 7-chloro-N-(3-((3-fluoroazetidin-1-yl)methyl)-5-(trifluoromethyl)phenyl)-1-methyl-6-(pyrazolo[1,5-a]pyrazin-3-yloxy)-1H-imidazo[4,5-b]pyridin-2-amine]",< 10
12,"COC1CN(Cc2cc(Nc3nc4ncc(Oc5cnn6ccncc56)c(Cl)c4n3C)cc(C(F)(F)F)c2)C1 [Example I-196, 7-chloro-N-(3-((3-methoxyazetidin-1-yl)methyl)-5-(trifluoromethyl)phenyl)-1-methyl-6-(pyrazolo[1,5-a]pyrazin-3-yloxy)-1H-imidazo[4,5-b]pyridin-2-amine]",< 10
13,"Cn1c(Nc2cc(CN3CCC(F)(F)C3)cc(C(F)(F)F)c2)nc2ncc(Oc3cnn4ccncc34)c(Cl)c21 [Example I-197, 7-chloro-N-(3-((3,3-difluoropyrrolidin-1-yl)methyl)-5-(trifluoromethyl)phenyl)-1-methyl-6-(pyrazolo[1,5-a]pyrazin-3-yloxy)-1H-imidazo[4,5-b]pyridin-2-amine]",< 10
14,"COC1CCN(Cc2cc(Nc3nc4ncc(Oc5cnn6ccncc56)c(Cl)c4n3C)cc(C(F)(F)F)c2)CC1 [Example I-198, 7-chloro-N-(3-((4-methoxypiperidin-1-yl)methyl)-5-(trifluoromethyl)phenyl)-1-methyl-6-(pyrazolo[1,5-a]pyrazin-3-yloxy)-1H-imidazo[4,5-b]pyridin-2-amine]",< 10
15,"CNc1nccn2ncc(Oc3cnc4nc(Nc5cc(C6CC6)nn(C)c5=O)n(C)c4c3Cl)c12 [Example I-199, 4-((7-chloro-1-methyl-6-((4-(methylamino)pyrazolo[1,5-a]pyrazin-3-yl)oxy)-1H-imidazo[4,5-b]pyridin-2-yl)amino)-6-cyclopropyl-2-methylpyridazin-3(2H)-one]",< 10
16,"Cn1c(C#N)c(C(F)(F)F)cc(Nc2nc3ncc(Oc4cnn5ccncc45)c(Cl)c3n2C)c1=O [Example I-200, 5-((7-chloro-1-methyl-6-(pyrazolo[1,5-a]pyrazin-3-yloxy)-1H-imidazo[4,5-b]pyridin-2-yl)amino)-1-methyl-6-oxo-3-(trifluoromethyl)-1,6-dihydropyridine-2-carbonitrile]",10 to 50
17,"CNc1nccn2ncc(Oc3cnc4nc(Nc5cc(C(F)(F)C(F)(F)F)cn(C)c5=O)n(C)c4c3Cl)c12 [Example I-201, 3-((7-chloro-1-methyl-6-((4-(methylamino)pyrazolo[1,5-a]pyrazin-3-yl)oxy)-1H-imidazo[4,5-b]pyridin-2-yl)amino)-1-methyl-5-(perfluoroethyl)pyridin-2(1H)-one]",< 10
18,"CNc1nccn2ncc(Oc3cnc4nc(Nc5cc(C(F)(F)F)cn(C(C)C)c5=O)n(C)c4c3Cl)c12 [Example I-202, 3-((7-chloro-1-methyl-6-((4-(methylamino)pyrazolo[1,5-a]pyrazin-3-yl)oxy)-1H-imidazo[4,5-b]pyridin-2-yl)amino)-1-isopropyl-5-(trifluoromethyl)pyridin-2(1H)-one]",< 10
19,"Cn1c(Nc2cnc(N3CCC3)c(C(F)(F)F)c2)nc2ncc(Oc3cnn4ccncc34)c(Cl)c21 [Example I-203, N-(6-(azetidin-1-yl)-5-(trifluoromethyl)pyridin-3-yl)-7-chloro-1-methyl-6-(pyrazolo[1,5-a]pyrazin-3-yloxy)-1H-imidazo[4,5-b]pyridin-2-amine]",10 to 50
20,"Cn1c(Nc2cc(CN3CC[C@@H](O)C3)cc(C(F)(F)F)c2)nc2ncc(Oc3cnn4ccncc34)c(Cl)c21 [Example I-204, (R)-1-(3-((7-chloro-1-methyl-6-(pyrazolo[1,5-a]pyrazin-3-yloxy)-1H-imidazo[4,5-b]pyridin-2-yl)amino)-5-(trifluoromethyl)benzyl)pyrrolidin-3-ol]",< 10
21,"Cn1c(Nc2cc(CN3CC[C@H](O)C3)cc(C(F)(F)F)c2)nc2ncc(Oc3cnn4ccncc34)c(Cl)c21 [Example I-205, (S)-1-(3-((7-chloro-1-methyl-6-(pyrazolo[1,5-a]pyrazin-3-yloxy)-1H-imidazo[4,5-b]pyridin-2-yl)amino)-5-(trifluoromethyl)benzyl)pyrrolidin-3-ol]",< 10
22,"CN1CCC(Oc2cc(Nc3nc4ncc(Oc5cnn6ccncc56)c(Cl)c4n3C)cc(C(F)(F)F)c2)CC1 [Example I-206, 7-chloro-1-methyl-N-(3-((1-methylpiperidin-4-yl)oxy)-5-(trifluoromethyl)phenyl)-6-(pyrazolo[1,5-a]pyrazin-3-yloxy)-1H-imidazo[4,5-b]pyridin-2-amine]",< 10
23,"Cn1c(Nc2ccc(CN3CCN(CCO)CC3)c(C(F)(F)F)c2)nc2ncc(Oc3cnn4ccncc34)c(Cl)c21 [Example I-207, 2-(4-(4-((7-chloro-1-methyl-6-(pyrazolo[1,5-a]pyrazin-3-yloxy)-1H-imidazo[4,5-b]pyridin-2-yl)amino)-2-(trifluoromethyl)benzyl)piperazin-1-yl)ethan-1-ol]",< 10
24,"Cn1c(Nc2ccc(CN3CCN(CC(F)F)CC3)c(C(F)(F)F)c2)nc2ncc(Oc3cnn4ccncc34)c(Cl)c21 [Example I-208, 7-chloro-N-(4-((4-(2,2-difluoroethyl)piperazin-1-yl)methyl)-3-(trifluoromethyl)phenyl)-1-methyl-6-(pyrazolo[1,5-a]pyrazin-3-yloxy)-1H-imidazo[4,5-b]pyridin-2-amine]",50 to 1000
25,"CN1CC[C@@H](Oc2cc(Nc3nc4ncc(Oc5cnn6ccncc56)c(Cl)c4n3C)cc(C(F)(F)F)c2)C1 [Example I-209, (R)-7-chloro-1-methyl-N-(3-((1-methylpyrrolidin-3-yl)oxy)-5-(trifluoromethyl)phenyl)-6-(pyrazolo[1,5-a]pyrazin-3-yloxy)-1H-imidazo[4,5-b]pyridin-2-amine]",10 to 50
26,"CN1CC[C@H](Oc2cc(Nc3nc4ncc(Oc5cnn6ccncc56)c(Cl)c4n3C)cc(C(F)(F)F)c2)C1 [Example I-210, (S)-7-chloro-1-methyl-N-(3-((1-methylpyrrolidin-3-yl)oxy)-5-(trifluoromethyl)phenyl)-6-(pyrazolo[1,5-a]pyrazin-3-yloxy)-1H-imidazo[4,5-b]pyridin-2-amine]",< 10
27,"COc1c(Oc2cnn3ccnc(OC)c23)cnc2nc(Nc3cc(C4CC4)cn(C)c3=O)n(C)c12 [Example I-211, 5-cyclopropyl-3-((7-methoxy-6-((4-methoxypyrazolo[1,5-a]pyrazin-3-yl)oxy)-1-methyl-1H-imidazo[4,5-b]pyridin-2-yl)amino)-1-methylpyridin-2(1H)-one]",< 10
